Common to all, as to test: inhibition of tumour cell growth, NCI panel, 48 h
The test system of test [1] is UO-31.
Test [2] deals with M14.
Test [3] concerns COLO 205.
The subject of test [4] is MDA-MB-231.
Test [5] relates to OVCAR-5.
Test [6] concerns TK-10.
Test [7] deals with LOX IMVI.
For test [8], the system named is HT-29.
Test [9] relates to KM12.
The test system of test [10] is MDA-MB-435.
Test [11] deals with SK-OV-3.
Test [12] concerns 786-0.
Test [13] concerns T47D.
The subject of test [14] is SNB-75.
The test system of test [15] is RXF 393.
In test [16] the test system is SW-620.
Test [17] relates to Malme-3M.
Test [18] concerns MCF7.
Test [19] concerns Hs-578T.
Test [20] relates to NCI-H23.

SMILES strings stand for the structures.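 Tested at 5 concentrations; 48 h exposure; 96-well plates; endpoints linearly interpolated, else capped at highest concentration. GI50 is the concentration that inhibits growth by half.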 Activity calls are given as the source filed them. Cut-off read from the data, not from the text of the source: active = GI50 up to about 1.1 µM and inactive = higher. Some results are limits rather than exact numbers.

Regarding `COc1c(Br)cc2c(c1OC)C(Br)CCC(Br)(Br)C2=O` (stereo not given), the GI50 in [1] was 1.37 µM (inactive); in test [2] it was 0.228 µM (active); in test [3] it was 1.82 µM (inactive); in [4] it was 3.1 µM (inactive); in test [5], 4.92 µM (inactive); in test [6], 3.17 µM (inactive). The GI50 in test [7] was 0.419 µM (active); in test [8], 0.968 µM (active); in test [9], 3.72 µM (inactive); in test [10], 0.434 µM (active); in test [11] it was 2.9 µM (inactive); in test [12] it was 0.385 µM (active). Further, the GI50 in test [13] was 1.85 µM (inactive); in [14] it was 9.02 µM (inactive); in [15], 0.706 µM (active); in [16], 0.38 µM (active); in [17], 1.89 µM (inactive); in [18], 0.74 µM (active). Besides, the GI50 was 10.4 µM (inactive) in [19] and 0.386 µM (active) in test [20].
For `CN1C(c2ccccc2)CC(=NOCc2ccccc2)CC1c1ccccc1` (stereo not given), the GI50 in test [1] is 43.6 µM (inactive); in test [2], 42.5 µM (inactive); in test [3] it was 50.6 µM (inactive); in test [4] it was 43.7 µM (inactive); in test [5], 70.8 µM (inactive); in [6] it was 46.9 µM (inactive). Also, the GI50 in test [7] is 14.8 µM (inactive); in test [8], 26.2 µM (inactive); in test [9], 21.9 µM (inactive); in test [10] it was 16.9 µM (inactive); in test [11] it was 75 µM (inactive); in test [12] it was 38.9 µM (inactive). In addition, the GI50 is 17.7 µM (inactive) in test [13]; 31.4 µM (inactive) in [14]; 54.5 µM (inactive) in test [15]; 28.1 µM (inactive) in test [16]; 50.9 µM (inactive) in test [17]; 18.6 µM (inactive) in [18]. In addition, the GI50 was 36 µM (inactive) in [19] and 28.2 µM (inactive) in test [20].
With `O=C(O)Cc1ccc2c(c1)/C(=C1/Nc3ccccc3C1=O)C(=O)N2`, the GI50 is 49 µM (inactive) in [1]; 36.6 µM (inactive) in [2]; 35.1 µM (inactive) in test [3]; > 100 µM (inactive) in [4]; > 100 µM (inactive) in test [5]; > 100 µM (inactive) in [6]. The GI50 in [7] was 20 µM (inactive); in [8], 38.8 µM (inactive); in test [9] it was 29.2 µM (inactive); in test [10], 36.1 µM (inactive); in [11], 23.4 µM (inactive); in test [12] it was 27.5 µM (inactive). In addition, the GI50 in [13] is 7.71 µM (inactive); in test [14], 26.1 µM (inactive); in test [15] it was 17.2 µM (inactive); in test [16] it was 46.2 µM (inactive); in test [17], 27.4 µM (inactive); in test [18] it was 10.8 µM (inactive). The GI50 in [19] is 27.8 µM (inactive); in [20] it was 39.6 µM (inactive).
For `COC1(OC)N=C(N)C2(C#N)/C(=N/N(C)C)CC(C)C12C#N` (stereo not given), the GI50 in test [1], in test [2], in test [3], in [4], in test [5] and in [6] was > 100 µM (inactive) each time. The GI50 in [7], in test [8], in [9], in [10], in test [11] and in [12] was > 100 µM (inactive) each time. The GI50 in test [13] is > 100 µM (inactive); in test [14] it was 71.9 µM (inactive); in test [15] it was > 100 µM (inactive); in test [16], > 100 µM (inactive); in test [17], > 100 µM (inactive); in [18] it was > 100 µM (inactive). For the same compound, the GI50 in test [19] and in test [20] was > 100 µM (inactive) throughout.
Turning to `CCn1c2c(c3c(C(=O)OC)c(O)ccc31)C(=O)c1ccccc1C2=O`, the GI50 was 4.57 µM (inactive) in test [1]; 14.2 µM (inactive) in [2]; 17.1 µM (inactive) in test [3]; 15.4 µM (inactive) in [4]; 18.4 µM (inactive) in test [5]; 32.4 µM (inactive) in test [6]. Besides, the GI50 in [7] is 13.2 µM (inactive); in [8], 19.3 µM (inactive); in [9], 16.6 µM (inactive); in test [10], 12.9 µM (inactive); in test [11], 5 µM (inactive); in test [12], 12.2 µM (inactive). The GI50 is 8.07 µM (inactive) in test [13]; 4.36 µM (inactive) in [14]; 16.1 µM (inactive) in test [15]; 15 µM (inactive) in [16]; 15.8 µM (inactive) in test [17]; 16.4 µM (inactive) in [18]. The values for the GI50 in test [19] and in test [20] were 10.1 µM (inactive) and 18.3 µM (inactive), respectively.
With `CCOC(=O)C12OC(CCC1=O)C(C(=O)OC)=C2C(=O)OC` (stereo not given), the GI50 in test [1], in test [2], in [3], in [4], in test [5] and in [6] was > 10 µM (inactive) in each case. For the same compound, the GI50 in [7], in test [8], in test [9], in test [10], in [11] and in test [12] was > 10 µM (inactive) throughout. The GI50 in [13] is > 10 µM (inactive); in [14] it was 2.26 µM (inactive); in test [15] it was > 10 µM (inactive); in test [16] it was > 10 µM (inactive); in test [17], > 10 µM (inactive); in [18], > 10 µM (inactive). Moreover, the GI50 in test [19] and in test [20] was > 10 µM (inactive) in each case.
As to `COc1ccc(C[C@H]2NC[C@H](O)[C@H]2OC(C)=O)cc1` [ANISOMYCIN], the GI50 was 0.0404 µM (active) in test [1]; < 0.0136 µM (active) in test [2]; < 0.0121 µM (active) in test [3]; 0.0159 µM (active) in [4]; 0.0478 µM (active) in [5]; 0.0479 µM (active) in test [6]. Also, the GI50 in test [7] was 0.0131 µM (active); in [8], < 0.0149 µM (active); in [9], 0.0224 µM (active); in [10], 0.0259 µM (active); in [11], 0.0398 µM (active); in test [12] it was 0.018 µM (active). Besides, the GI50 is 0.0303 µM (active) in test [13]; < 0.0106 µM (active) in test [14]; 0.0483 µM (active) in test [15]; 0.0164 µM (active) in test [16]; 0.0552 µM (active) in test [17]; 0.0193 µM (active) in test [18]. Also, the GI50 in [19] is 0.01 µM (active); in test [20], 0.0316 µM (active).
As to `CC(=O)O[C@@H]1CO[C@H]2O[C@H]3[C@@H](C(C=O)=C[C@H](O)[C@@H]4C5=C(C(C)C)CC[C@]5(C)CC[C@@]34C)[C@@]2(O)C1=O` [STRIATIN E], the GI50 is 0.241 µM (active) in test [1]; 0.262 µM (active) in test [2]; 0.0769 µM (active) in test [3]; 0.184 µM (active) in test [4]; 0.303 µM (active) in test [5]; 0.229 µM (active) in test [6]. Also, the GI50 in test [7] was 0.277 µM (active); in test [8], 0.0918 µM (active); in [9], 0.404 µM (active); in test [10], 0.174 µM (active); in test [11] it was 3.74 µM (inactive); in test [12], 0.112 µM (active). Further, the GI50 in test [13] is 0.0889 µM (active); in [14], 0.0736 µM (active); in [15], 0.106 µM (active); in test [16] it was 0.0499 µM (active); in test [17] it was 0.177 µM (active); in test [18], 0.217 µM (active). Further, the GI50 was 0.221 µM (active) in test [19] and 0.209 µM (active) in test [20].

The record behind these values is ChEMBL document CHEMBL1201862, “PubChem BioAssay data set” (2004).
